In US20150296773A1, “COMPOSITIONS COMPRISING A […] MIXTURE AND AN INSECTICIDE” (Bayer CropScience AG, priority 2012, published 2015):

Assays:
Assay type in all cases: in vivo
[1] = test system: Phaedon cochleariae; test: Phaedon cochleariae spray test (Example D, Chinese cabbage leaf-disks); conditions: mortality after 6 d
Experimental: Phaedon cochleariae—Spray Test
Solvent: 78.0 parts by weight of acetone • • 1.5 parts by weight of dimethylformamide Emulsifier: 0.5 parts by weight of alkylaryl polyglycolether
(§1) To produce a suitable preparation of active compound, 1 part by weight of active compound is mixed with the stated amount of solvent and emulsifier, and the concentrate is diluted with emulsifier-containing water to the desired concentration. To produce a suitable preparation of a spore suspension the spores are diluted with emulsifier-containing water to the desired concentration.
Chinese cabbage (Brassica pekinensis) leaf-disks are sprayed with a preparation of the active ingredient of the desired concentration. Once dry, the leaf disks are infested with mustard beetle larvae (Phaedon cochleariae).
After the specified period of time, mortality in % is determined 100% means all beetle larvae have been killed and 0% means none of the beetle larvae have been killed. The mortality values determined thus are recalculated using the Colby-formula (see above).

[2] = test system: Aphis gossypii; test: Aphis gossypii spray test (Example B, cotton leaves); conditions: mortality after 1 d
Experimental: Aphis gossypii—Spray Test
(§2) Solvent: 7 parts by weight of dimethylformamide Emulsifier: 2 parts by weight of alkylaryl polyglycolether
(§3) To produce a suitable preparation of active compound, 1 part by weight of active compound is mixed with the stated amount of solvent and emulsifier, and the concentrate is diluted with emulsifier-containing water to the desired concentration. To produce a suitable preparation of a spore suspension the spores are diluted with emulsifier-containing water to the desired concentration Ammonium salt and/or penetration enhancer in a dosage of 1000 ppm are added to the desired concentration, if necessary.
Cotton leaves (Gossypium hirsutum) which are heavily infested by the cotton aphid (Aphis gossypii) are treated by being sprayed with the preparation of the active compound of the desired concentration.
After the specified period of time, the mortality in % is determined 100% means all the aphids have been killed; 0% means none of the aphids have been killed. The mortality values determined thus are recalculated using the Colby-formula (see above).

[3] = test system: Myzus persicae; test: Myzus persicae spray test (Example A, pepper leaves); conditions: for Efficacy in % after 5 d: mortality after 5 d; for Efficacy in % after 4 d: mortality after 4 d
Experimental: (§4) Myzus persicae—Spray Test
as §2, §3
Pepper leaves (Capsicum annuum) which are heavily infested by the green peach aphid (Myzus persicae) are treated by being sprayed with the preparation of the active compound of the desired concentration.
After the specified period of time, mortality in % is determined 100% means all the aphids have been killed; 0% means none of the aphids have been killed. The mortality values determined thus are recalculated using the Colby-formula (see above).

[4] = test system: Myzus persicae; test: Myzus persicae spray test (Example G, Chinese cabbage leaf-disks); conditions: for Efficacy in % after 6 d: mortality after 6 d; for Efficacy in % after 1 d: mortality after 1 d
Experimental: as §4
(§5) Solvent: 78.0 parts by weight acetone • 1.5 parts by weight dimethylformamide Emulsifier: 0.5 parts by weight alkylarylpolyglycolether
as §1
Chinese cabbage (Brassica pekinensis) leaf—disks infected with all instars of the green peach aphid (Myzus persicae) are sprayed with a preparation of the active ingredient of the desired concentration.
After the specified period of time, mortality in % is determined 100% means all aphids have been killed; 0% means none of the aphids have been killed. The mortality values determined thus are recalculated using the Colby-formula (see above).

[5] = test system: Tetranychus urticae; test: Tetranychus urticae spray test, OP-resistant (Example H, French beans); conditions: for Efficacy in % after 6 d: mortality after 6 d; for Efficacy in % after 2 d: mortality after 2 d
Experimental: (§6) Tetranychus urticae—Spray Test, OP-Resistant
as §5, §1
French beans (Phaseolus vulgaris) which are heavily infested with all stages of the two spotted spidermite (Tetranychus urticae), are sprayed with a preparation of the active ingredient of the desired concentration.
After the specified period of time, mortality in % is determined 100% means all spider mites have been killed and 0% means none of the spider mites have been killed. The mortality values determined thus are recalculated using the Colby-formula (see above).

[6] = test system: Spodoptera frugiperda; test: Spodoptera frugiperda test (SPODFR) (Example F, maize leaves); conditions: 0.075 g ai/ha; mortality after 3 d
Experimental: Spodoptera frugiperda—Test (SPODFR)
Solvent: 7 parts by weight of dimethylformamide Emulsifier: 1 part by weight of alkylaryl polyglycolether
as §3, with “concentration” for “concentration,”
Maize leaves (Zea mais) are treated by being sprayed with the preparation of the active compound of the desired concentration and are infested with caterpillars of the fall army worm (Spodoptera frugiperda). The mortality values determined thus are recalculated using the Colby-formula (see above).
After the specified period of time, mortality in % is determined 100% means all the caterpillars have been killed; 0% means none of the caterpillars have been killed.

[7] = test system: Tetranychus urticae; test: Tetranychus urticae spray test, OP-resistant (Example C, bean plants); conditions: 0.8 ppm; mortality after 6 d
Experimental: as §6, §2
as §3, with “concentration” for “concentration,”
Bean plants (Phaseolus vulgaris) which are heavily infested with all stages of the two-spotted spider mite (Tetranychus urticae) are treated by being sprayed with the preparation of the active compound of the desired concentration.
After the specified period of time, mortality in % is determined 100% means all the spider mites have been killed; 0% means none of the spider mites have been killed. The mortality values determined thus are recalculated using the Colby-formula (see above).

[8] = test system: Spodoptera frugiperda; test: Spodoptera frugiperda spray test (Example E, maize leaf sections); conditions: 0.032 g ai/ha; mortality after 6 d
Experimental: Spodoptera frugiperda—Spray Test
as §5
as §1, with “preparation of the active compound,” for “preparation of active compound,”, “preparation of spore suspension” for “preparation of a spore suspension”
Maize (Zea mais) leaf sections are sprayed with a preparation of the active ingredient of the desired concentration. Once dry, the leaf sections are infested with fall armyworm larvae (Spodoptera frugiperda).
After the specified period of time, mortality in % is determined 100% means all caterpillars have been killed and 0% means none of the caterpillars have been killed. The mortality values determined thus are recalculated using the Colby-formula (see above).

Cc1c(F)c(F)c(COC(=O)[C@@H]2[C@H](/C=C(\Cl)C(F)(F)F)C2(C)C)c(F)c1F (racemic) [Tefluthrin]
Efficacy in % after 6 d ([1]; 10 g ai/ha): 0%

CNC(=O)c1cc(Cl)cc(C)c1NC(=O)c1cc(Br)nn1-c1ncccc1Cl [Chlorantraniliprole]
Efficacy in % after 1 d ([2]; 4 ppm): 10%
Efficacy in % after 1 d ([2]; 8 ppm): 50%
Efficacy in % after 5 d ([3]; 8 ppm): 60%

CN/C(=N\[N+](=O)[O-])NCc1cnc(Cl)s1 [Clothianidin]
Efficacy in % after 1 d ([2]; 0.25 ppm): 3%
Efficacy in % after 1 d ([2]; 0.5 ppm): 8%
Efficacy in % after 6 d ([1]; 20 g ai/ha): 50%
Efficacy in % after 4 d ([3]; 0.125 ppm): 3%
Efficacy in % after 4 d ([3]; 0.25 ppm): 10%
Efficacy in % after 4 d ([3]; 0.5 ppm): 65%

CNC(=O)c1cc(C#N)cc(C)c1NC(=O)c1cc(Br)nn1-c1ncccc1Cl [Cyantraniliprole]
Efficacy in % after 6 d ([1]; 0.8 g ai/ha): 0%
Efficacy in % after 6 d ([4]; 0.8 g ai/ha): 0%

CC1(C)[C@H](C(=O)O[C@H](C#N)c2cccc(Oc3ccccc3)c2)[C@@H]1C=C(Br)Br [Deltamethrin]
Efficacy in % after 6 d ([5]; 4 g ai/ha): 0%

N#Cc1nn(-c2c(Cl)cc(C(F)(F)F)cc2Cl)c(N)c1[S+]([O-])C(F)(F)F (centres unmarked) [Fipronil]
Efficacy in % after 6 d ([5]; 100 g ai/ha): 0%
Efficacy in % after 6 d ([4]; 100 g ai/ha): 0%

Cc1cc(C(F)(C(F)(F)F)C(F)(F)F)ccc1NC(=O)c1cccc(I)c1C(=O)NC(C)(C)CS(C)(=O)=O [Flubendiamide]
Efficacy in % after 3 d [6]: 18%

O=C1C=C(N(Cc2ccc(Cl)nc2)CC(F)F)CO1 [Flupyradifurone]
Efficacy in % after 6 d ([4]; 0.8 g ai/ha): 0%

Cc1cc(F)c(-n2nc(C(F)(F)F)nc2N)cc1[S+]([O-])CC(F)(F)F (centres unmarked) [I277, 1-{2-fluoro-4-methyl-5-[(2,2,2-trifluorethyl)sulfinyl]phenyl}-3-(trifluoromethyl)-1H-1,2,4-triazol-5-amine]
Efficacy in % after 6 d ([5]; 4 g ai/ha): 70%
Efficacy in % after 6 d [7]: 25%

O=[N+]([O-])NC1=NCCN1Cc1ccc(Cl)nc1 [Imidacloprid]
Efficacy in % after 1 d ([4]; 0.16 g ai/ha): 70%

CNC(=O)Oc1cc(C)c(SC)c(C)c1 [Methiocarb]
Efficacy in % after 6 d ([5]; 100 g ai/ha): 20%
Efficacy in % after 6 d ([4]; 500 g ai/ha): 0%

Cc1cc(C)c(C2=C(OC(=O)CC(C)(C)C)C3(CCCC3)OC2=O)c(C)c1 [Spiromesifen]
Efficacy in % after 6 d ([5]; 0.8 g ai/ha): 30%

CCOC(=O)OC1=C(c2cc(C)ccc2C)C(=O)N[C@]12CC[C@@H](OC)CC2 [Spirotetramat]
Efficacy in % after 6 d ([5]; 0.8 g ai/ha): 0%
Efficacy in % after 6 d ([4]; 0.8 g ai/ha): 0%

CC(c1ccc(C(F)(F)F)nc1)S(C)(=O)=NC#N (centres unmarked) [Sulfoxaflor]
Efficacy in % after 6 d ([4]; 0.16 g ai/ha): 70%

N#C/N=C1\SCCN1Cc1ccc(Cl)nc1 [Thiacloprid]
Efficacy in % after 6 d ([4]; 0.16 g ai/ha): 0%

CN1COCN(Cc2cnc(Cl)s2)/C1=N\[N+](=O)[O-] [Thiamethoxam]
Efficacy in % after 1 d ([4]; 0.8 g ai/ha): 70%

CS/C(C)=N\OC(=O)N(C)SN(C)C(=O)O/N=C(\C)SC [Thiodicarb]
Efficacy in % after 6 d ([4]; 100 g ai/ha): 0%

CC1(C)C(C=C(Cl)Cl)C1C(=O)OC(C#N)c1ccc(F)c(Oc2ccccc2)c1 (stereo not drawn) [β-Cyfluthrin, beta-Cyfluthrin]
Efficacy in % after 6 d ([5]; 4 g ai/ha): 0%
Efficacy in % after 6 d ([4]; 0.16 g ai/ha): 0%

Abamectin
Efficacy in % after 5 d ([3]; 2 ppm): 30%

Spinetoram
Efficacy in % after 2 d ([5]; 4 g ai/ha): 20%
Efficacy in % after 6 d [8]: 33%

Spinosad
Efficacy in % after 2 d ([5]; 4 g ai/ha): 0%
